Drawing on ChEMBL document CHEMBL1629468, “Synthesis and antitumor activity of novel benzimidazole-5-carboxylic acid derivatives and their transition metal complexes as topoisomerease II inhibitors” (2010), this text covers GI50, RatioGI50 and Ratio for nine compounds.

A value given as a limit tells only on which side of the number the result lay.

A short description of assay [1]: Growth inhibition of human gastric cancer cells after 72 hrs by sulforhodamine B assay. The assay is classed as functional. The conditions noted are these: Cancer cell lines, Stomach, pooled result: one value given for 3 cell lines, strains, targets or settings. In general terms: In SRB staining, fixed cells bind dye roughly in proportion to their protein.
The test system of assay [2] is Cancer cell lines. In words: Ratio of compound GI50 to etoposide GI50 for human gastric cancer cells. In kind it is functional, Stomach.
Assay [3] addresses DNA topoisomerase 2-alpha (Mus musculus) (UniProt Q01320). In words: Ratio of compound to etoposide on inhibitory effect of mouse DNA topoisomerase 2.
In assay [4] the test system is Cancer cell lines. In words: Ratio of compound GI50 to etoposide GI50 for human lung cancer cells. The assay is classed as functional.
The test system of assay [5] is Cancer cell lines. As to the kind of experiment: Ratio of compound GI50 to etoposide GI50 for human colon cancer cells. The assay is classed as functional.

Usually GI50 stands for the concentration at which growth is held to half of that of the control. Lower therefore signals greater sensitivity of the cells.

DNA topoisomerase 2-alpha (Mus musculus), sequence (Q01320 whole entry): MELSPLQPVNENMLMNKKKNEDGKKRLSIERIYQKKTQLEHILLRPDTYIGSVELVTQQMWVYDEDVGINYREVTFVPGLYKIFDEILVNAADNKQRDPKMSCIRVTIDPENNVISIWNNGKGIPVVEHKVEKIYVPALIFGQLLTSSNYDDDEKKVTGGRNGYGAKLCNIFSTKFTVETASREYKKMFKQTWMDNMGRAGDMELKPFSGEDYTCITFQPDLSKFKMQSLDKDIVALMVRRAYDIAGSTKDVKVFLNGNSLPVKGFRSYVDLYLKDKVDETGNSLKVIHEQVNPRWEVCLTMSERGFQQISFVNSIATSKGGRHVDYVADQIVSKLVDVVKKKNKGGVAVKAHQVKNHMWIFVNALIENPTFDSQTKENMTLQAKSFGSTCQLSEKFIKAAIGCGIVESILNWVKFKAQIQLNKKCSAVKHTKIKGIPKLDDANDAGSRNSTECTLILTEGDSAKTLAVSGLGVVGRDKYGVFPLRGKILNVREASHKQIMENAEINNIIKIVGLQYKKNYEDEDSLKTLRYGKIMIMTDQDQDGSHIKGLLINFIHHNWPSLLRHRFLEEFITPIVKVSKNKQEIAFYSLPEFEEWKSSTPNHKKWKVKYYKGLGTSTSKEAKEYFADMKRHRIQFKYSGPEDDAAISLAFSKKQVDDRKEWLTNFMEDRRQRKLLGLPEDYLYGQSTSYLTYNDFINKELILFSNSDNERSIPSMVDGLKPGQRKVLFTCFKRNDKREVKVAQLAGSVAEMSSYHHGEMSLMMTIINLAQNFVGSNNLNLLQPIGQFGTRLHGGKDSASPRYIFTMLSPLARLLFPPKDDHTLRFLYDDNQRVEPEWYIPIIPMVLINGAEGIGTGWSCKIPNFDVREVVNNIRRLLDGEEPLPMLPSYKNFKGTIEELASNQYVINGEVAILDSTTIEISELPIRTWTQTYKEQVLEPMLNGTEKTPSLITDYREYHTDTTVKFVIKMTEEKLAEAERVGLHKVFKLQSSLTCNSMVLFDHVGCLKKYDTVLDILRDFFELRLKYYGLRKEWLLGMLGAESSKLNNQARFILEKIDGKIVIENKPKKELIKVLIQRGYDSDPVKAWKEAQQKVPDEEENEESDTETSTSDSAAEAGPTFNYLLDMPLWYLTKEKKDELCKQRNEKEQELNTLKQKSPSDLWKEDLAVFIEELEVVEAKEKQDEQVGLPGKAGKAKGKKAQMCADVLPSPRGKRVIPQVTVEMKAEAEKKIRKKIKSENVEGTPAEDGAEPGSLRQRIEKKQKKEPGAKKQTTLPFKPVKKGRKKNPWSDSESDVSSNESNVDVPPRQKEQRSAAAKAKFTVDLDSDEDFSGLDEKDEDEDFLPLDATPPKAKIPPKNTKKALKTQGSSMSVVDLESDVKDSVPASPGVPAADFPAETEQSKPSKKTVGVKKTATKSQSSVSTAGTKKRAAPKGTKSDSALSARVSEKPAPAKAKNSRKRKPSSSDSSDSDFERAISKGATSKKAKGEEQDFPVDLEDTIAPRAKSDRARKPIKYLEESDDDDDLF

Take `O=C(O)c1ccc2[nH]c(CNc3ccccn3)nc2c1`: the GI50 in assay [1] came to 22 µM. In other words, the double-digit micromolar range. Same read-out and setting: the value for `COc1cc([C@@H]2c3cc4c(cc3[C@@H](O[C@@H]3O[C@@H]5CO[C@@H](C)O[C@H]5[C@H](O)[C@H]3O)[C@H]3COC(=O)[C@H]23)OCO4)cc(OC)c1O` [ETOPOSIDE] was 1.3 µM; that for `COc1cccc2c1C(=O)c1c(O)c3c(c(O)c1C2=O)C[C@@](O)(C(=O)CO)C[C@@H]3O[C@H]1C[C@H](N)[C@H](O)[C@H](C)O1` [DOXORUBICIN] was 0.065 µM. Turning to `O=C(O)c1ccc2[nH]c(C[n+]3ccccc3)nc2c1.[Cl-]`, the RatioGI50 in the assay on Cancer cell lines [2], with Cancer cell lines [4] and in the assay on Cancer cell lines [5] was 7 in each case. In assay [3], the Ratio is 10. The GI50 in assay [1] is 0.095 µM.

`O=C(O)c1ccc2[nH]c(CNc3nccs3)nc2c1`: in assay [1], the GI50 was 47 µM. Same read-out and setting: the value for `CCc1c2c(nc3ccc(O)cc13)-c1cc3c(c(=O)n1C2)COC(=O)[C@]3(O)CC` [7-ETHYL-10-HYDROXYCAMPTOTHECIN] was 0.066 µM. On the same count and under the same terms, with `O=C(O)c1ccc2[nH]c(CNc3ccncc3)nc2c1` the figure was 17 µM; with `O=C(O)c1ccc2[nH]c(CNc3nc4ccccc4[nH]3)nc2c1`, over 100 µM. The same measure, in the same setting: with `O=C(O)c1ccc2[nH]c(CCl)nc2c1` the figure was over 100 µM.
